Experimental data: patent US20040143025A1, “Carbon monoxide generating compunds for treatment of vascular, inflammatory and immune disorders” (priority 2002, published 2004)

Columns and labels:
rat liver [1] = tested on: rat liver; design: species or system Sprague Dawley (SD) rats; conditions: 2 h reperfusion, inhibitor given together with CO 300 ppm; for bile production / portal vein resistance: compared with CO alone
From the text: Animals. Male Sprague Dawley (SD) rats weighing between 300-350 g (Harlan Sprague Dawley, Indianapolis, Ind.) were used. Animals were fed standard rodent chow and water and libitum and cared according to guidelines approved by the American Association of Laboratory Animal Care.
Isolated perfusion liver apparatus. An isolated perfusion liver apparatus was used, as described in Amersi et al., supra, and Maulik et al., Circulation 94:398-406 (1996). In brief, syngeneic rat blood, obtained for each experiment from four donor animals, was diluted to a hematocrit of 15% with Krebs Ringer Bicarbonate Buffer (mM: NaCl 118, KH2POF 1, MgSO4 0.9, CaCl2 2.5, dextrose 11.1, and NaHCO2 25), and maintained at pH of 7.4. The perfusate was pumped from a heated reservoir that warmed the perfusate to 37° C. through silastic tubing oxygenator connected to a flow meter that measured portal vein blood flow (Cole Palmer Instruments, Chicago, Ill.). Portal pressure was kept constant via a pressure monometer connected to a T fitting in the portal vein canula. […] During the experiment, pH, temperature and oxygenation were kept constant.
Ex vivo cold ischemia model. SD rats underwent isoflourane anesthesia and systemic heparinization. […] The livers were then stored for 24 h at 4° C. in UW solution, followed by ex-vivo reperfusion for 1-2 h on an isolated perfusion liver apparatus. Portal vein blood flow, pressure, and bile production were recorded every 30 min. Blood samples were collected at 30 min intervals and serum glutamic oxaloacetic transaminase (sGOT) levels were measured using an autoanalyzer from ANTECH Diagnostics (Irvine, Calif.). At the conclusion of experiment, a portion of the liver was snap frozen for mRNA extraction/Western blot analyses; the remaining samples were fixed in formalin for H&E staining.
The role of CO—HO-1 pathway in hepatic I/R injury was studied in five major treatment groups (n=4.8 rats/group). In Group 1, the extent of I/R injury was contrasted between livers perfused ex-vivo with blood saturated with CO (300 parts per million [ppm]; 0.03% balanced air) vs. air alone (21% O2). As NO may enhance HO-1 expression (Brouard et al., supra), we then investigated a link between the two gaseous molecules in Group 2 livers, which were perfused with CO supplemented with 25 mM NG-nitro-L-arginine methyl ester hydrochloride (L-NAME; Sigma Chemicals, St. Louis, Mo.), an inducible NO inhibitor. […] To analyze as to whether exogenous CO can substitute for HO-1 in preventing I/R insult, Group 4 rats were treated 24 h prior to liver procurement with ZnPP)(1.5 mg/kg/i.p; Porphyrin Products, Logan Utah), an HO-1 inhibitor, followed by ex vivo perfusion with CO. […] Brouard et al., supra. Therefore, Group 5 rats were pre-treated 60 min before harvest with p38 MAPK inhibitor, SB203580, a pyridinyl imidazol (25 mg/kg orally; Sigma). In addition, prior to reperfursion with CO, SB203580 (20 μM) was added to the perfusate.

rat liver [2] = assay: Histologic severity of I/R injury, Banff criteria; design: species or system Sprague Dawley (SD) rats; conditions: CO plus inhibitor, 2 h perfusion; scale 1-4
From the text: Histology. Liver specimens were fixed in a 10% buffered formalin solution and embedded in paraffin. Sections were made at 4 μm and stained with H&E. The histologic severity of I/R injury was graded using International Banff Criteria (Int'l Banff Schema Conference Worksheet, The Third Int'l Banff Conference on Allograft Pathology, June 21-25 (1995)). Using these criteria, lobular disarray and ballooning changes are graded from 1-4, where no change is given a score of 1 and severe disarray or ballooning changes are given a score of 4.

HO-1 [3] = assay: HO-1 enzymatic activity in liver homogenates; format: biochemical, rat; conditions: liver after perfusion; ZnPP = 1.5 mg/kg i.p. 24 h before harvest then CO perfusion; CO = CO only
Description: HO-1 Enzymatic Activity. Livers were homogenized on ice in a Tris-HCl lysis buffer (pH 7.4) containing 0.5% Triton X-100 and protease inhibitors. Samples were frozen in small aliquots until use. Homogenates (100 μl) were mixed with 0.8 mM NADPH, 0.8 mM glucose-6-phosphate 1.0 unit G-60P dehydrogenase, 1 mM MgCl2 and […] purified rat liver biliverdin reductase at 4° C. The reaction was initiated by the addition of hemin (final concentration 0.25 mM). The reaction mixture was incubated at 37° C. in the dark for 15 min. At the end of incubation period, any insoluble material was removed by centrifugation and supernatants were analyzed for bilirubin concentration. An extinction coefficient of 40 mM^−1 cm^−1 at A 460-530 was used to calculate the amount of bilirubin formed. Controls included naive samples in the absence of the NADPH generating system and all the ingredients of the reaction mixture in the absence of graft homogenates. Biliverdin reductase was purified from rat liver, as described in Browne and Ultrich, Mol. Pharmacol. 32:497-504 (1987).

HO-1 [4] = assay: ELISA for HO-1 protein expression in liver; design: species or system rat; conditions: ZnPP = pretreatment then CO perfusion; CO = CO only
Description: ELISA for HO-1 protein expression. Livers were homogenized on ice in a Tris-HCl lysis buffer (pH 7.4) containing 0.5% Triton X-100 and protease inhibitors. Flat-bottom microtiter 96-well plates (Nunc) were coated with 7 μg/ml anti-HO-1 mAb (OSA-111, Stressgen, Canada) in PBS for 18 h at room temperature. Unbound Ab was removed by washing (wash buffer: 0.05% Tween 20 in 50 mM phosphate buffer, pH 7.5) and remaining binding sites were blocked by incubation with a 5% BSA/PBS solution (1 h). Recombinant HO-1 (SPP-730) and tissue homogenate were diluted in assay diluent (0.5% BSA/0.05% Tween 20/PBS) and incubated in anti-HO-1 mAb coated wells for 1 h at room temperature. Subsequently, plates were washed three times with wash buffer and incubated with rabbit anti-HO-1 polyclonal antibody (SPA-895, Stressgen; diluted 1:1000 in assay diluent) for 30 min at room temperature. Bound rabbit IgG was detected with a donkey anti-rabbit (gG-HRP conjugate (711-035-152, Jackson Research Laboratories; diluted 1:8000 in assay diluent). Unbound secondary Ab was removed by washing and bound HRP was detected using 1 mg/ml OPD in substrate buffer (0.1% H2O2, 0.1 M citric acid, 0.2 M Na2HPO4, pH 5.0). The color reaction was stopped with 1 M HCl and the optical density at 490 nm was measured.

IL-6 = assay: Quantitative RT-PCR of cytokine mRNA in collagen-arthritis rats, IL-6; conditions: rat, in vivo
Description: (§1) Iodoform and bromoform were compared with methylene chloride as alternative carbon monoxide generating compounds, using the rat collagen arthritis model described in Example 6 above. Briefly, arthritis was induced in a Lovain strain of rats by immunizing the animals with Collagen Type II in Incomplete Freund's Adjuvant. Digitized radiographs were obtained at the completion of the study on day 28. Pharmacokinetics were also determined and the synovial tissue from the inflamed joints of the treated animals was harvested on Day 16 or Day 28 post-immunization. Disease systems were generally evident by Day 10.
(§2) Carboxyhemoglobin levels peaked within a few hours of administration but normalized within 24 hours without cumulative pharmacokinetic consequences. Messenger RNA (mRNA) from the treated animals was purified and specific mRNA levels for cytokines TNF, IL-6, and IFN-γ were quantitated by Quantitative RT-PCR.

[5] = tested on: Louvain rats immunized with collagen type II; assay: Rat collagen-arthritis model; format: in vivo; design: arthritic score / Arthritis Score / X-Ray Score: scale not given here; conditions: for structural damage by blinded radiographic scores: day 28; for efficacy in comparison with methylene chloride (RB2000): rat collagen arthritis model, arthritic score; for arthritic scores in comparison to methylene chloride treated rats: rat, in vivo
Description: To assess the therapeutic potential of methylene chloride as a carbon-monoxide generating compound in this disease model, female Louvain rats weighing between 120 and 150 g were injected intradermally with 0.5 mg native chicken collagen type II solubilized in 0.1M acetic acid and emulsified in incomplete Freund's adjuvant. At the onset of disease (around day 10) animals were divided into three groups. One group was treated daily with vehicle, the second and third groups with 100 mg/kg/day and 500 mg/kg/day methylene chloride (p.o.). Severity of disease was evaluated daily using a quantification method based on standardized levels of swelling and periarticular erythema. Animals were sacrificed on day 28. […] Compared to control animals these differences were statistically significant (p<0.02).
as §1

IFN-γ = assay: Quantitative RT-PCR of cytokine mRNA in collagen-arthritis rats, IFN-γ; conditions: rat, in vivo
Description: as §1, §2

[6] = Blood carboxyhemoglobin after alkyl halide administration; format: in vivo; conditions: 100 mg/kg
Description: The ability of the trihalomethanes iodoform and bromoform to act as carbon monoxide generating compounds was assayed in comparison with methylene chloride.

TNF = assay: Quantitative RT-PCR of cytokine mRNA in collagen-arthritis rats, TNF; format: in vivo, rat; conditions: Day 28
Description: as §1, §2

Lewis rats = assay: Experimental autoimmune encephalomyelitis (EAE) model of multiple sclerosis; format: in vivo, rat; conditions: daily oral administration from day 8 post-inoculation; scale 0 to 3
Description: Multiple sclerosis is characterized by an autoimmune and inflammatory response directed against myelin sheath and oligodendrocytes, resulting in demyelination in the central nervous system. A well-established animal model of multiple sclerosis, experimental autoimmune encephalomyelitis (EAE), was used to examine the effect of the subject alkyl halides on this autoimmune and inflammatory condition of the central nervous system. Lewis rats were given intradermal footpad injections of 50 μg guinea pig myelin basic protein (MBP) and complete Freund's adjuvant (CFA) to induce experimental allergic encephalomyelitis (EAE). Daily oral administration of vehicle, methylene chloride or iodoform was started on day 8 post-inoculation and continued to the end of the study. Animals were monitored and scored on a 0 (normal) to 3 (complete hindlimb paralysis) scale. Daily mean±SD clinical scores are shown.

SMILES	bile production (rat liver [1])	portal vein resistance (rat liver [1])	sGOT release (rat liver [1]) [IU/L]	mRNA levels for IL-6 compared to methylene chloride treated rats (IL-6)	Arthritis Score ([5]; Day 28, dose 250 mg/kg)	X-Ray Score ([5]; Day 28, dose 250 mg/kg)	structural damage by blinded radiographic scores [5]	efficacy in comparison with methylene chloride (RB2000) [5]	arthritic scores in comparison to methylene chloride treated rats [5]	mRNA levels for IFN-γ compared to methylene chloride treated rats (IFN-γ)	COHb level in comparison with the same amount of methylene chloride [6]	mRNA levels for TNF compared to methylene chloride treated rats (TNF)	further results
COC(=O)[C@@H](N)CCCN=C(N)N[N+](=O)[O-].Cl [L-NAME, NG-nitro-L-arginine methyl ester hydrochloride]	increase in bile production	decrease in portal vein resistance	191±16										
O=C1C(Nc2ccccc2)=CC(=O)c2ncccc21 [LY-83583, 6-anilino-5,8-quinalinedone]	comparable	slightly increased	186±21										
C[S+]([O-])c1ccc(-c2nc(-c3ccncc3)c(-c3ccc(F)cc3)[nH]2)cc1 (centres unmarked) [SB203580]	significantly less bile	significant increase in portal vein resistance	352±21										
C=CC1=C(C)c2cc3[n-]c(cc4[n-]c(cc5nc(cc1n2)C(C)=C5C=C)c(C)c4CCC(=O)O)c(CCC(=O)O)c3C.[Zn+2] [ZnPP]	increased bile production	decreased portal vein resistance	202±11										Banff score of I/R injury (rat liver [2]): 1.5±0.0; HO-1 enzyme activity (HO-1 [3]): 0.95±0.06 nmol of bilirubin/mg/protein/min; HO-1 protein expression in liver samples (ELISA) (HO-1 [4]): 0.85±0.62 ng of HO-1/mg lysate
BrC(Br)Br [bromoform]				substantially lower	5.5 ± 0.86	2.75 ± 0.81	significantly inhibited structural damage	superior efficacy	significantly lower	substantially lower	higher COHb level	higher	
IC(I)I [iodoform]				substantially lower	1.85 ± 0.91	0.85 ± 0.45	significantly inhibited structural damage	superior efficacy	significantly lower	substantially lower	higher COHb level	higher	clinical score / clinical signs (Lewis rats): did not display any clinical signs; Arthritis Score ([5]; Day 28, dose 100 mg/kg): 3.62 ± 0.99; X-Ray Score ([5]; Day 28, dose 100 mg/kg): 1.50 ± 0.80; Arthritis Score ([5]; Day 28, dose 175 mg/kg): 3.16 ± 0.99; X-Ray Score ([5]; Day 28, dose 175 mg/kg): 1.90 ± 0.64
